Measurements reported in PMC10817917, “Alkyl deoxyglycoside-polymyxin combinations against critical priority carbapenem-resistant gram-negative bacteria” (Scientific Reports, 2024).
Converted amounts (≈) assume the structure as drawn. Like-named read-outs stand apart in the source and are kept apart here.

Columns and labels:
[1] = test system: E. coli ATCC 25922; test: Broth microdilution MIC/MBC, glycosides with or without polymyxins; assay type: cell-based, Escherichia coli; conditions: strain A
[2] = test system: K. pneumoniae CQ4921; test: as above; assay type: cell-based, Klebsiella pneumoniae; conditions: strain C
[3] = test system: E. cloacae CQ1941; test: as above; assay type: cell-based; conditions: strain D
[4] = test system: K. pneumoniae CQ1942; test: Broth microdilution MIC, glycosides with or without polymyxins; assay type: cell-based, Klebsiella pneumoniae; conditions: strain E
[5] = test system: K. pneumoniae CQ1947; test: as above; assay type: cell-based, Klebsiella pneumoniae; conditions: strain F
[6] = test system: A. baumannii CQ4322; test: Broth microdilution MIC/MBC, glycosides with or without polymyxins; assay type: cell-based, Acinetobacter baumannii; conditions: strain G; for MIC (antibiotic susceptibility profile) / RIS (susceptibility category): antibiotic alone
[7] = test system: P. aeruginosa CQ4924; test: Broth microdilution MIC, glycosides with or without polymyxins; assay type: cell-based, Pseudomonas aeruginosa; conditions: strain H; for MIC (antibiotic susceptibility profile) / RIS (susceptibility category): antibiotic alone
[8] = test system: E. coli NCTC 13846; test: Broth microdilution MIC/MBC, glycosides with or without polymyxins; assay type: cell-based, Escherichia coli; conditions: agent alone, no adjuvant (polymyxin conc. 0); strain B
[9] = test system: Caco-2 cells; test: Resazurin cell viability assay (cytotoxicity); assay type: cell-based, human; conditions: tested alone (no polymyxin adjuvant); 72 h
Procedure: (§1) Cytotoxicity of each compound alone or in combination with different polymyxin concentrations was evaluated through the resazurin cell viability assay[49] in human embryonic HEK-293T cells, as well as in human colon adenocarcinoma Caco-2 cells, after a 72-h long incubation period.
(§2) HEK-293T and Caco-2 cells were grown in RPMI 1640 medium (VWR) supplemented with 10% FBS (Biowest), 1% PenStrep (Sigma Aldrich), and 1% glutamine (Biowest) in a humidified incubator at 37 °C with a 5% CO2 atmosphere. Twice a week, the medium was aspirated, the cells were washed with DPBS (VWR), trypsinized with trypsin–EDTA solution (Biowest), and resuspended in fresh culture medium. The dose-dependent effects of each glycoside or glycoside-polymyxin combination were evaluated by the resazurin cell viability assay. Polymyxins (colistin sulfate and PMB sulfate for microbiological assays, European Pharmacopoeia Reference Standards, Sigma-Aldrich) were firstly dissolved in sterilized Mili-Q water to a stock concentration of 1 mg/mL, while glycosides were dissolved in DMSO to a stock concentration of 30 mM. 1.5 × 10^4 cells/well in 96.5 µL of medium were seeded onto 96-well plates and incubated at 37 °C for 24 h. For each compound, ten stock dilutions (with concentrations from 750 to 75 µM) were prepared in fresh medium immediately prior to incubation. 16 µL of each dilution were added to each well so that the final glycoside concentrations ranged from 100 to 10 µM in each row in a final assay volume of 120 µL. In addition, the previously prepared polymyxin stock solutions were diluted in fresh medium, affording new stocks of 8, 4, and 2 µg/mL. The same volume (7.5 µL/well) of PMB or colistin was then added to each row to achieve a final polymyxin concentration of 0.5, 0.25, and 0.125 µg/mL, respectively, regardless of the glycoside concentration. In assays without polymyxin, the same volume (7.5 µL/well) of medium was added. In all assays, the maximum DMSO concentration was 0.33%. After a 72-h incubation at 37 °C, 12 µL of a 0.15 mg/mL resazurin (Sigma-Aldrich) in sterilized Mili-Q water were added to each well, and the plates were left incubating for another 4 h at 37 °C. Resorufin was measured at 570/600 nm, and the percentage of resazurin reduction, corresponding to the cell viability percentage, was calculated according to Eq. (1)[60]. IC50 values were obtained by best fitting the dose-dependent inhibition curves using the Prism 9® software. The results were expressed as the mean ± SD of three independent replicates, with only data from analysis with R^2 > 0.90 being considered.1 %Cellviability=Abssample-Absmediumcontrol/Abscellcontrol-Absmediumcontrol×100

[10] = test system: HEK-293T cells; test: Resazurin cell viability assay (cytotoxicity); assay type: cell-based, human; conditions: tested alone (no polymyxin adjuvant); 72 h
Procedure: as §1, §2

[11] = test system: HEK-293 cells; parameters: method as in PMID 30532748; conditions: polymyxin alone; cited from earlier work
[12] = Escherichia coli, ATCC25922, antibiotic alone, read-out: MIC (antibiotic susceptibility profile)
[13] = Klebsiella pneumoniae, CQ4921, antibiotic alone, read-out: MIC (antibiotic susceptibility profile)
[14] = Enterobacter cloacae, CQ1941, antibiotic alone, read-out: MIC (antibiotic susceptibility profile)
[15] = Klebsiella pneumoniae, CQ1942, antibiotic alone, read-out: MIC (antibiotic susceptibility profile)
[16] = Klebsiella pneumoniae, CQ1947, antibiotic alone, read-out: MIC (antibiotic susceptibility profile)
[17] = agent alone, no adjuvant (polymyxin conc. 0)

CNC(C)C1CCC(N)C(OC2C(N)CC(N)C(OC3OCC(C)(O)C(NC)C3O)C2O)O1 (centres unmarked) [Gentamicin, reference compound]
MIC [1, 12]: 0.5 µg/mL (≈ 1.05 µM) | MIC [2, 13]: 0.25 to 0.5 µg/mL (≈ 0.523 to 1.05 µM) | MIC [3, 14]: ≥ 128 µg/mL | MIC [4, 15]: 1 µg/mL (≈ 2.09 µM) | MIC [5, 16]: 64 µg/mL (≈ 134 µM) | MIC (antibiotic susceptibility profile) [6]: 32 to 64 µg/mL | MIC (antibiotic susceptibility profile) [7]: 2 µg/mL (≈ 4.19 µM) | RIS (susceptibility category) [7]: wt

NC[C@H]1O[C@H](O[C@H]2[C@H](O)[C@@H](O[C@H]3O[C@H](CO)[C@@H](O)[C@H](N)[C@H]3O)[C@H](N)C[C@@H]2N)[C@H](N)C[C@@H]1O [Tobramycin, reference compound]
MIC [1, 12]: 0.5 µg/mL (≈ 1.07 µM) | MIC [2, 13]: 0.25 µg/mL (≈ 0.535 µM) | MIC [3, 14]: ≥ 128 µg/mL | MIC [4, 15]: 16 µg/mL (≈ 34.2 µM) | MIC [5, 16]: ≥ 128 µg/mL | MIC (antibiotic susceptibility profile) [6]: 32 µg/mL (≈ 68.4 µM) | MIC (antibiotic susceptibility profile) [7]: 1 µg/mL (≈ 2.14 µM)

C[C@@H](O)[C@H]1C(=O)N2C(C(=O)O)=C(S[C@@H]3CN[C@H](C(=O)Nc4cccc(C(=O)O)c4)C3)[C@H](C)[C@H]12 [Ertapenem, reference compound]
MIC [1, 12]: 0.008 µg/mL (≈ 0.0168 µM) | MIC [2, 13]: 8 to 64 µg/mL (≈ 16.8 to 135 µM) | MIC [3, 14]: 64 µg/mL (≈ 135 µM) | MIC [4, 15]: ≥ 128 µg/mL | MIC [5, 16]: 16 to 64 µg/mL (≈ 33.6 to 135 µM) | RIS (susceptibility category) [6]: ERP | RIS (susceptibility category) [7]: ERP

CC(C)(O/N=C(\C(=O)N[C@@H]1C(=O)N2C(C(=O)[O-])=C(C[n+]3ccccc3)CS[C@H]12)c1csc(N)n1)C(=O)O [Ceftazidime, reference compound]
MIC [1, 12]: 0.125 to 0.25 µg/mL (≈ 0.229 to 0.457 µM) | MIC [2, 13]: 1 µg/mL (≈ 1.83 µM) | MIC [3, 14]: ≥ 128 µg/mL | MIC [4, 15]: ≥ 128 µg/mL | MIC [5, 16]: ≥ 128 µg/mL | MIC (antibiotic susceptibility profile) [7]: 4 µg/mL (≈ 7.32 µM)

CC1(C)S[C@@H]2[C@H](NC(=O)[C@H](N)c3ccc(O)cc3)C(=O)N2[C@H]1C(=O)O [Amoxicillin, reference compound]
MIC [1, 12]: 4 µg/mL (≈ 10.9 µM) | MIC [2, 13]: ≥ 128 µg/mL | MIC [3, 14]: ≥ 128 µg/mL | MIC [4, 15]: ≥ 128 µg/mL | MIC [5, 16]: ≥ 128 µg/mL | RIS (susceptibility category) [6]: ERP | RIS (susceptibility category) [7]: ERP

C[C@@H](O)[C@H]1C(=O)N2C(C(=O)O)=C(SCCN=CN)C[C@H]12 [Imipenem, reference compound]
MIC [1, 12]: 0.125 to 0.25 µg/mL (≈ 0.418 to 0.835 µM) | MIC [2, 13]: 4 µg/mL (≈ 13.4 µM) | MIC [3, 14]: 16 µg/mL (≈ 53.4 µM) | MIC [4, 15]: ≥ 128 µg/mL | MIC [5, 16]: 8 to 16 µg/mL (≈ 26.7 to 53.4 µM) | MIC (antibiotic susceptibility profile) [6]: 32 to 64 µg/mL | MIC (antibiotic susceptibility profile) [7]: 16 µg/mL (≈ 53.4 µM)

polymyxin B [PMB, reference compound]
MIC [1, 17]: 0.5 µg/mL | MIC [8]: 4 µg/mL | MIC [2, 17]: 0.5 µg/mL | MIC [3, 17]: 0.5 µg/mL | MIC [4, 17]: 0.5 µg/mL | MIC [5, 17]: 0.5 µg/mL | MIC [6, 17]: 0.5 µg/mL | MIC [7, 17]: 1 µg/mL | IC50 [9]: > 115 µg/mL | IC50 [10]: > 115 µg/mL | IC50 [11]: > 500 µg/mL
